Laboratory results: patent US20250152609A1, “SALICYLIC ACID COMPOSITIONS AND USES THEREOF” (priority 2022, published 2025)
Values after ≈ are worked out from the molar mass of the structure shown. Read-outs that look alike come from different tables or passages of the source.

Key:
E. coli = assay: In vitro antibacterial assay (MIC), E. coli growth in solution in 96-well plates, plate counting; assay type: cell-based; conditions: for MIC: Escherichia coli
Procedure: E. coli growth in solution was measured in 96-well plates. Absence and presence of different concentrations of the test agent during exponential growth determined the MIC (minimal inhibitory concentration) value. E. coli enumeration was by the plate-counting method (ufc) as described above.

[1] = tested on: E. coli CFT073 adhesion to human urinary bladder cells (T24); assay: In vitro adhesion test (ADH): adhesion of E. coli to human bladder cells, cfu plate count; assay type: cell-based; conditions: for reduction of adhesion of E. coli CFT073 on urinary bladder cells: 1 h, adhesion <50% of control = significant, FIG. 1C
Procedure: In Vitro Adhesion Test (ADH)—Host-Pathogen-Interaction Assessed by In Vitro Adhesion to Human Cells Adhesion of E. coli to bladder epithelium was established in cell culture. Upon exposure to E. coli an epithelial cell detachment was observed, in a manner similar to in vivo exfoliation. The test was miniaturized by growing the epithelium cell cultures in 96-well plates instead of the classical 24-well plates.
The test samples were added prior to the start of the adhesion process. Bladder cells grown to confluence in 96-well plates were exposed to E. coli (50 μL of E. coli at 1.4*10^7 cfu/mL in each well) for 1 h. After 1 h, non-adhered E. coli were rinsed off and the adhered E. coli were detached and enumerated by plate counting colony-forming-units (cfu). Enumeration was automatized using a spiral plate count apparatus which further improved the test-variability.
The E. coli adhesion test was run in absence (given as 100% adhesion) and presence of different concentrations of the agents. […] Human cytotoxicity measurements of the mitochondrial activity (MTT) excluded side-effects of the agents.
Results are presented in FIG. 1C where relative adhesion (ADH) is expressed in percent (no inhibition control=100%; buffer was used instead of the treatments). All adhesion values<50% are defined as a significant inhibition.
Anti-adhesive effect is measured in vitro (standard method) using centrifuged extracts (Fu1) of Filipendula ulmaria (F) and Epilobium parviflorum (E) using human epithelial bladder cells (T24 ATCC® HTB-4™ Homo sapiens urinary bladder cell lines).

[2] = Analysis of salicylic acid and its metabolites in urines of treated mice (HPLC-MRM-MS); assay type: in vivo; conditions: for share of ingested SA found in the urines in this form: Filipendula ulmaria extract with 1.3% SA, total 40 mg in 8 doses over 24 h, oral
Procedure: A: Comparison of RT from analytical standards of salicylic acid (SA) (1) and its metabolites […] (DHBA) (2) and salicyluric acid (SUA) (3) and peaks found in urine samples collected from the group treated with Filipendula ulmaria extract (Fil). Analysis was performed on a SunFire™ C18 ([…], 3.0 mm×150 mm) column (Waters). 5% MeCN (A) and MeCN (B) both containing 0.1% of formic acid were used as mobile phase. A gradient of 0 to 100% B in 20 min was applied at a flow rate of 0.8 mL/min. B: Concentration, amounts (in samples collected over a 3-hour-period) and cumulative amounts of salicylic acid (SA) (1) and its metabolites 2,3-dihydroxybenzoic acid (DHBA) (2) and salicyluric acid (SUA) (3) found in urine samples collected from groups treated with Filipendula ulmaria extract (F). Cumulative amounts are the cumulated amounts of the respective compounds in the urine over time up to the indicated timepoint. Numbers on x-axis indicate collection time. Analysis was performed by HPLC-MRM-MS using the chromatographic conditions described in A.
The urines collected from control groups as described in Example 3 were compared against urines collected from mice treated with different combinations of plant extracts. The urines were analyzed using HPLC-UV/MS on a SunFire C18 column column. 5% MeCN (A) and MeCN (B) both containing 0.1% of formic acid were used as mobile phase. A gradient of 0 to 100% B in 20 min was applied at a flow rate of 0.8 mL/min. MS scans were recorded in positive and negative ion modes (ESI+/−). Major additional peaks in the groups treated with a mixture of Filipendula ulmaria-Epilobium parviflorum were identified as salicylic acid (SA) (1), 2,3-dihydroxybenzoic acid (DHBA) (2), and salicyluric acid (SUA) (3). FIG. 3A compares the RT from analytical standards of salicylic acid (SA) (1) and its metabolites salicyluric acid (SUA) ([…]) and 2,3-dihydroxybenzoic acid (DHBA) (2), and peaks found in urine samples collected from groups treated with Filipendula extracts. The exact mass of the three molecules was confirmed using high-resolution mass spectrometry. Further, the three identified metabolites were quantified in the urine samples by MRM—with the following transitions (m z): 136.5→65.0, 136.5→92.9 (SA); 152.9→108.9, 152.9→80.9 (DHBA); 194.0→150.0, 194.0→92.9 (SUA) and pure analytical standards that were diluted in urine from negative controls for the calibration curve.
The amounts of SA, SUA et DHBA were quantified in the urine of mice after absorption of an extract of Filipendula ulmaria containing 1.3% of SA at a total dose of 40 mg divided in 8 equal doses over 24 h as described above (Example 3, in-vivo efficacy studies).

E. coli CFT073 = assay: In vivo UTI mouse model: living E. coli in bladder homogenates (bladder adhesion); design: species or system mice
Description: (§1) An in vivo test of UTI (urinary tract infection) was established and implemented for the identification of active plant extracts and compounds. […] which were age matched females were adapted to the clean, non-septic laboratory conditions. The experiment started with a 2 days nutrition enriched by glucose in order to facilitate the subsequent UTI infection. Each compound, or plant extract was then applied at various concentrations by 8 consecutive intestinal ingestions by gavage-devices over the duration of 24 h. Each ingestion comprised a volume of 100 μL solution. During these 24 h the mice were hold in metabolic cages. The urine was collected every 3 h to analyze diuresis effects. For the subsequent UTI infection*, the isolate E. coli CFT073 (commercially available at DSM, originating from human UTI) was applied trans-urethral into the bladder and incubated in vivo for a 3 h duration and free movements in normal cages. Mice were euthanized and living E. coli were enumerated in bladder homogenates (homogenization of 12 bladder for living bacteria counting (cfu)), and organ morphology were assessed by histology microscopy. *UTI Infection with 50 μL of E. coli (CFT073) containing […] inoculated in the bladder (in another experiment, the in vivo infection was run similarly, but with slightly less germs 3.3×10^6 or 5×10^6 germs per inoculation).
The in-vivo anti-adhesion effect of the various substances and extracts of the invention were tested in vivo using a mouse model as described above by giving orally 100 μL of test substance every 3 hours for 24 h prior to inoculating E. coli in the bladder 3 h before measuring E. coli in the bladder. At the end of each assay, mice are euthanized, and their bladder homogenized for E. coli measurements.

[3] = Diuretic effects: urine collected over 24 h in the mouse model; assay type: in vivo; conditions: 68.8 μg/100 μL orally every 3 h; urine of 6 mice over 24 h
Description: as §1, with “For the subsequent UTI infection*, the isolate E. coli CFT073 (commercially available at DSM, originating from human UTI) was applied trans-urethral into the bladder and incubated in vivo for a 3 h duration and free movements in normal cages.” left out
The urines were collected from control groups and from mice treated with different agents. […] Each value has been calculated from the total urine collected from 6 mice.

[4] = E. coli, 24 h exponential growth, pure substances and cranberry control
[5] = as given in the legend of FIG. 1F, read-out: prevention of growth of E. coli (MIC)
[6] = CHHeNCrL (so in the source); i.e. C3H/HeNCrl), mouse, in vivo

Row | Compound | Observation of microbial culture (E. coli; 0.3125 mg/mL, 24 h) | Observation of microbial culture (E. coli; 0.625 mg/mL, 24 h) | Observation of microbial culture (E. coli; 1.25 mg/mL, 24 h) | Observation of microbial culture (E. coli; 2.5 mg/mL, 24 h) | Observation of microbial culture (E. coli; 5 mg/mL, 24 h) | MIC (minimal inhibitory concentration) (E. coli; [4]) | MIC (E. coli; [5]) [µg/mL] | reduction of adhesion of E. coli CFT073 on urinary bladder cells ([1]; 2.5 mg/mL) | reduction of adhesion of E. coli CFT073 on urinary bladder cells ([1]; 5 mg/mL) | cumulated amounts present in the urine [2, 6] [µg] | share of ingested SA found in the urines in this form ([2]; mice) [%] | other results
1 | O=C(O)c1cccc(O)c1O [2,3-Dihydroxybenzoic acid, 2,3-dihydroxybenzoic acid] | growth | growth * | no growth | no growth | no growth | MIC at 1.25 mg/mL | 2500 (≈ 16.2 mM) | an effect | an effect | 68 | – | MIC (minimal inhibitory concentration) (E. coli; E. coli, 24 h exponential growth, pure substances and cranberry control, listed as 2): 5000 µg/mL (≈ 32.4 mM)
2 | O=C(O[C@H]1[C@@H]2OC(=O)c3cc(O)c(O)c(O)c3-c3c4cc(c(O)c3O)Oc3c(cc(O)c(O)c3O)C(=O)O[C@H]3C(O)O[C@@H]5COC(=O)c6cc(O)c(O)c(O)c6-c6c(cc(c(O)c6O)Oc6c(cc(O)c(O)c6O)C(=O)O[C@H]1C(O)O[C@@H]2COC4=O)C(=O)O[C@H]5[C@@H]3OC(=O)c1cc(O)c(O)c(O)c1)c1cc(O)c(O)c(O)c1 (stereo partly shown) [Oenothein B] | – | – | – | – | – | MIC at 1.3 mg/mL | – | – | – | – | – | Observation of microbial culture (E. coli; 0.65 mg/mL): growth; Observation of microbial culture (E. coli; 1.3 mg/mL): no growth; Observation of microbial culture (E. coli; 1.9 mg/mL): no growth; Observation of microbial culture (E. coli; 2.6 mg/mL): no growth; Observation of microbial culture (E. coli; 3.25 mg/mL): no growth; MIC (E. coli; 24 h, read-out: MIC (minimal inhibitory concentration)): 1300 µg/mL (≈ 0.829 mM); MIC (E. coli; read-out: prevention of growth of E. coli (MIC)): 1300 µg/mL (≈ 0.829 mM); number of adhered bacteria E. coli lower than in the controls (E. coli CFT073; 0.065 mg/100 mL, inoculation 3.28×5×10^6 cfu): 75.12%; identification of the compound and its metabolites by LC-MS in the collected urine samples ([2]; mouse, in vivo, po): not identified
3 | O=C(O)c1ccccc1O [Salicylic acid, salicylic acid] | growth | growth | growth | growth | no growth | MIC at 5 mg/mL | 5000 (≈ 36.2 mM) | adhesion reduction efficacy | adhesion reduction efficacy | 84 | 5.4 | MIC (E. coli; 24 h, E. coli, 24 h exponential growth, pure substances and cranberry control, read-out: MIC (minimal inhibitory concentration)): 5000 µg/mL (≈ 36.2 mM); inhibitory effect on the bacterial infection (adhesion) (E. coli CFT073; 0.05 mg/100 μL by gavage 8 times in 24 h, 5×10^7 cfu E. coli trans-urethral, n=6 mice): −60%; inhibitory effect on the bacterial infection (adhesion) (E. coli CFT073; 3.3×10^6 cfu trans-urethral): −61.3%; reduction of adhesion of E. coli CFT073 on urinary bladder cells ([1]; 1.25 mg/mL): adhesion reduction efficacy; concentration necessary for inhibition of E. coli adhesion to human bladder epithelium ([1]; for 1 hour): 2.5 mg/mL
4 | O=C(O)CNC(=O)c1ccccc1O [Salicyluric acid, salicyluric acid] | growth | growth | growth | growth * | no growth | MIC at 5 mg/mL | 2500 (≈ 12.8 mM) | – | – | – | 32.0 | MIC (minimal inhibitory concentration) (E. coli; E. coli, 24 h exponential growth, pure substances and cranberry control, listed as 3): 1250 µg/mL (≈ 6.4 mM); cumulated amounts present in the urine ([2]; mice, FIG. 3B): 707 µg
5 | quercetin-4′-O-glucoside [Spiraeoside] | – | – | – | – | – | – | – | – | – | – | – | % variation versus Negative Control (water), urine [3]: −9.10%; % variation versus Positive Control (Cranberry), urine [3]: −4.20%
